ChEMBL document CHEMBL1201862, “PubChem BioAssay data set” (2004)
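Each compound was tested at five concentrations against cells in 96-well plates for 48 hours. Here, GI50 denotes the concentration required for 50% inhibition of growth.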 Calls of active or inactive are those of the source. No stated cut-off is given here; in the data, active = GI50 up to about 1.1 µM and inactive = higher.

Experiments:
Experiment in all cases: NCI anticancer screen, dose series, 48 h
786-0 = tested on: 786-0
SK-OV-3 = tested on: SK-OV-3
Malme-3M = tested on: Malme-3M
SK-MEL-5 = tested on: SK-MEL-5
HOP-92 = tested on: HOP-92
CAKI-1 = tested on: CAKI-1
A549 = tested on: A549
M14 = tested on: M14
SW-620 = tested on: SW-620
SNB-19 = tested on: SNB-19
NCI-H226 = tested on: NCI-H226
SNB-75 = tested on: SNB-75
HOP-62 = tested on: HOP-62
NCI/ADR-RES = tested on: NCI/ADR-RES
SK-MEL-28 = tested on: SK-MEL-28
HCT-116 = tested on: HCT-116
COLO 205 = tested on: COLO 205
Hs-578T = tested on: Hs-578T
MDA-N = tested on: MDA-N
SF-268 = tested on: SF-268

Measured: GI50

CCOP(=O)(OCC)C(C)(CC)N/C(=N\C1=NC(C(F)(F)F)(C(F)(F)F)N=C(C(F)(F)F)O1)NC(NC(C)=O)(C(F)(F)F)C(F)(F)F (stereo not given)
inactive: 786-0 37.3 µM | SK-OV-3 27.4 µM | Malme-3M 22.1 µM | SK-MEL-5 14.1 µM | HOP-92 9.95 µM | CAKI-1 42 µM | A549 53.5 µM | M14 22.9 µM | SW-620 56.8 µM | SNB-19 60.4 µM | NCI-H226 22 µM | SNB-75 2.3 µM | HOP-62 36.1 µM | NCI/ADR-RES 17.9 µM | SK-MEL-28 > 100 µM | HCT-116 33.3 µM | COLO 205 16.1 µM | Hs-578T 31.8 µM | MDA-N 52.5 µM | SF-268 52.2 µM

CCOc1cc(C2SCC(=O)N2c2nc3cc4sc(N5C(=O)CSC5c5ccc(O)c(OCC)c5)nc4cc3s2)ccc1O (stereo not given)
inactive: 786-0 31.6 µM | SK-OV-3 > 100 µM | Malme-3M > 68.9 µM | SK-MEL-5 59.2 µM | HOP-92 27.7 µM | CAKI-1 > 50.7 µM | A549 6.98 µM | M14 > 100 µM | SW-620 27.1 µM | SNB-19 41.3 µM | NCI-H226 23.6 µM | SNB-75 > 100 µM | HOP-62 > 100 µM | NCI/ADR-RES 8.2 µM | SK-MEL-28 > 100 µM | HCT-116 20.9 µM | COLO 205 4.8 µM | Hs-578T > 47.1 µM | MDA-N 30.5 µM | SF-268 > 68.2 µM

CC(C)/C(Cl)=N/OC(=O)Nc1ccc(OC(F)(F)F)cc1
inactive: 786-0 6.81 µM | SK-OV-3 17.6 µM | Malme-3M 2.48 µM | SK-MEL-5 7.14 µM | HOP-92 1.68 µM | CAKI-1 5.2 µM | A549 17 µM | M14 3.78 µM | SW-620 1.77 µM | SNB-19 17.7 µM | NCI-H226 11.1 µM | SNB-75 15.6 µM | HOP-62 17.7 µM | NCI/ADR-RES 17 µM | SK-MEL-28 13.3 µM | HCT-116 6.65 µM | COLO 205 1.84 µM | Hs-578T 15.8 µM | MDA-N 13.4 µM | SF-268 23.2 µM

COC(=O)C1(O)C(c2ccccc2)=NC2(C)CCCC21 (stereo not given)
inactive: 786-0 > 100 µM | SK-OV-3 > 100 µM | Malme-3M > 100 µM | SK-MEL-5 > 100 µM | HOP-92 > 100 µM | CAKI-1 > 100 µM | A549 > 100 µM | M14 > 100 µM | SW-620 > 100 µM | SNB-19 > 100 µM | NCI-H226 > 100 µM | SNB-75 > 100 µM | HOP-62 > 100 µM | NCI/ADR-RES > 100 µM | SK-MEL-28 > 100 µM | HCT-116 > 100 µM | COLO 205 > 100 µM | Hs-578T > 100 µM | MDA-N > 100 µM | SF-268 > 100 µM
